Results on 16 compounds are retold here after patent US20110230493A1, “1-OXA-8-Azaspiro [4,5] Decabe-8-Carboxamide Compounds as FAAH Inhibitors” (Pfizer Inc., priority 2008, published 2011).

In one assay the target is T1, rat FAAH (Rattus norvegicus, UniProt P97612).
T1 construct: made in house; host or cells: E. coli
T1 sequence (P97612 1-579): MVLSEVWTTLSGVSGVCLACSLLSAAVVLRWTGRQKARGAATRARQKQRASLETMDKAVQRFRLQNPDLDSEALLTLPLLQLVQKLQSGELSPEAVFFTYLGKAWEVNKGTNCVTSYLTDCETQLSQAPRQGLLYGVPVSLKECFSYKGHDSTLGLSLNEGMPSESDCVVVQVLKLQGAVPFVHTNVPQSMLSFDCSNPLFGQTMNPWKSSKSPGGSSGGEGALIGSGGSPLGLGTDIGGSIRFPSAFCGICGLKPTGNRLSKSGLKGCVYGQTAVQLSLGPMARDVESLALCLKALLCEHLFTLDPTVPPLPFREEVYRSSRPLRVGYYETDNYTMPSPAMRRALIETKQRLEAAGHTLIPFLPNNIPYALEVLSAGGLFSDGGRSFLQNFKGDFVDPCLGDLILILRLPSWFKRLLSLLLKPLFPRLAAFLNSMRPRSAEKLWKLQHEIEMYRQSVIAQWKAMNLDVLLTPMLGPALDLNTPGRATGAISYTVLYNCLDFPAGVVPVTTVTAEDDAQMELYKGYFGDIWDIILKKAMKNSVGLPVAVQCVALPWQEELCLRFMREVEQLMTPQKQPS
Nature of the assay: FAAH assay, rat FAAH enzyme inactivation (kinact/Ki). The format is biochemical. Particulars: pH 7.4, in vitro, oleamide 50 μM, 30° C., read-out: rFAAH kinact/Ki. As for the experimental part:
(§1) The FAAH assay was carried out in 384-well clear polystyrene plates (Evergreen Scientific) in a total volume of 50 μl per well in a manner similar to that described by Mileni et al., Proc. Nat. Acad. Sci. 2008, 105, 12820-12824. All percents are by volume. Serial dilutions of compound were initially prepared in 100% DMSO, and then diluted two-fold into HPLC-grade H2O to give 50% DMSO. To each well, was placed the reaction mixture (40 μl) containing 1-4 nM FAAH, 50 mM NaPi, pH 7.4, 3 mM α-ketoglutarate, 0.15 mM NADH, 7.5 U/ml glutamate dehydrogenase, 2 mM ADP, 1 mM EDTA, and 0.1% Triton X-100 (The concentration shown for each component is the final concentration in the assay). To this mixture, was added 5 μl of a compound of Examples 1 to 101 at various concentrations in 50% DMSO (or 5 μl 50% DMSO for controls). This was immediately followed by the addition of 5 μl oleamide (500 μM) dissolved in 75% EtOH/25% DMSO and the reaction mixture was mixed for 1.5 min. The final concentrations of DMSO and EtOH in the assay were each 7.5%. The reactions were incubated at 30° C. and the absorbance at 340 nm was collected over a period of 90 min with readings taken in 30-second intervals using SpectraMax Plus^384 Microplate Spectrophotometer (Molecular Devices, Sunnyvale, Calif.). The human FAAH and rat FAAH used in the assay was prepared as described in the patent application WO 2006/067613 using wild-type E. coli cells transformed in St. Louis, Mo., U.S.A. The purity of the enzyme was greater than 98% based on an analysis by SDS-polyacrylamide gel electrophoresis followed by Coomassie Blue staining.
(§2) Reaction progress curves were corrected for the non-enzymatic oxidation of NADH by subtraction of absorbancies at each time point obtained from control reactions containing no FAAH enzyme. The loss of enzyme activity as a function of time is well-described by the following mathematical equation (1) for a mono-exponential decay: […]
(§3) where At represents the absorbance at time t, A0 represents the absorbance at time zero, and C represents a constant. Observed rates of enzyme inactivation (kobs) were determined from the non-linear reaction progress curves by fitting the corrected absorbancies to an equation for a mono-exponential decay using the third-party Microsoft Excel plug-in, XLfit (IDBS Limited). Secondary plots of kobs vs. inhibitor concentration were prepared from kobs values obtained from progress curves. Second-order rates for enzyme inactivation, expressed as kinact/Ki (M^−1 s^−1), were calculated from the slopes from linear regression analysis of the secondary plot of kobs vs. inhibitor concentration as defined in following equation (2), where [I]<<Ki:
(§4) The concentration of substrate in the assay was equal to the Km for oleamide of 50 μM. Therefore, reported kinact/Ki values are obtained by multiplying resulting slopes by a factor of two (i.e. slope=kinact/(Ki*2)).
(§5) Table 1, below, lists human FAAH (hFAAH) and rat FAAH (rFAAH) enzyme inhibition values for Examples 1-101 as a ratio of kinact/Ki (M^−1 s^−1).

The next assay addresses T2, human FAAH (Homo sapiens, UniProt O00519).
T2 construct: made in house; host or cells: E. coli
T2 sequence (O00519 1-579): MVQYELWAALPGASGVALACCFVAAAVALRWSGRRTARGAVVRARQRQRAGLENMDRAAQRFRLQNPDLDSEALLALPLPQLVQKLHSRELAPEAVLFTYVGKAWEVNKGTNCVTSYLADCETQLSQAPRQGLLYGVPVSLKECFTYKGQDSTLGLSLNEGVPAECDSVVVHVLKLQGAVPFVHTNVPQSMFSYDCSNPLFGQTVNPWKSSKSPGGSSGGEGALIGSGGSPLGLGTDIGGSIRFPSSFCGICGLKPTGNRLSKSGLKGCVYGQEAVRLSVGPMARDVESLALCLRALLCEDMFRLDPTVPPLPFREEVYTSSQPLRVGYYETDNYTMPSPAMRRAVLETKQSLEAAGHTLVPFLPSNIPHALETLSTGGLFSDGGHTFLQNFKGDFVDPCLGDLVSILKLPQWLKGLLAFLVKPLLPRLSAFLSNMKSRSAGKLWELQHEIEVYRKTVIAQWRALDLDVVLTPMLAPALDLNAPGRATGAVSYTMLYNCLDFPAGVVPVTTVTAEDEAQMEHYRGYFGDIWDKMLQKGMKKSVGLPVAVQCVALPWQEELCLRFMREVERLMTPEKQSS
Nature of the assay: FAAH assay, human FAAH enzyme inactivation (kinact/Ki). The class given is biochemical. As to conditions: pH 7.4, in vitro, oleamide 50 μM, 30° C., read-out: hFAAH kinact/Ki. As for the experimental part:
as §1, §2, §3, §4, §5

As for `Cc1noc(NC(=O)N2CCC3(CC2)CC(c2ccc(Cl)cc2F)CO3)c1C` (racemic) [Example 27, (3RS)-3-(4-chloro-2-fluorophenyl)-N-(3,4-dimethylisoxazol-5-yl)-1-oxa-8-azaspiro[4.5]decane-8-carboxamide], the kinact/KI at rat FAAH is 1140 M⁻¹ s⁻¹; at human FAAH, 2090 M⁻¹ s⁻¹.
For `Cc1noc(NC(=O)N2CCC3(CC2)CC(c2ccc(F)c(Cl)c2)CO3)c1C` (racemic) [Example 28, (3RS)-3-(3-chloro-4-fluorophenyl)-N-(3,4-dimethylisoxazol-5-yl)-1-oxa-8-azaspiro[4.5]decane-8-carboxamide] the same measures were 3950 M⁻¹ s⁻¹ and 1580 M⁻¹ s⁻¹.
For `Cc1noc(NC(=O)N2CCC3(CC2)CC(c2ccc(OCc4cccc(C(F)(F)F)n4)cc2)CO3)c1C` (racemic) [Example 29, (3RS)-N-(3,4-dimethylisoxazol-5-yl)-3-(4-{[6-(trifluoromethyl)pyridin-2-yl]methoxy}phenyl)-1-oxa-8-azaspiro[4.5]decane-8-carboxamide], in that order: 3230 M⁻¹ s⁻¹ and 2110 M⁻¹ s⁻¹.
On to `Cc1noc(NC(=O)N2CCC3(CC2)CC(c2ccc(OCc4ccc(F)c(F)c4)cc2)CO3)c1C` (racemic) [Example 30, (3RS)-3-{4-[(3,4-difluorobenzyl)oxy]phenyl}-N-(3,4-dimethylisoxazol-5-yl)-1-oxa-8-azaspiro[4.5]decane-8-carboxamide], for which the kinact/KI on rat FAAH is 5800 M⁻¹ s⁻¹; at human FAAH it was 7380 M⁻¹ s⁻¹.
With `Cc1noc(NC(=O)N2CCC3(CC2)CC(c2ccc(OCc4cc(F)ccc4F)cc2)CO3)c1C` (racemic) [Example 31, (3RS)-3-{4-[(2,5-difluorobenzyl)oxy]phenyl}-N-(3,4-dimethylisoxazol-5-yl)-1-oxa-8-azaspiro[4.5]decane-8-carboxamide], the kinact/KI is 3220 M⁻¹ s⁻¹ on rat FAAH and 3580 M⁻¹ s⁻¹ on human FAAH.
For `Cc1noc(NC(=O)N2CCC3(CC2)CC(c2ccc(OCc4ccc(C(F)(F)F)cn4)cc2)CO3)c1C` (racemic) [Example 32, (3RS)-N-(3,4-dimethylisoxazol-5-yl)-3-(4-{[5-(trifluoromethyl)pyridin-2-yl]methoxy}phenyl)-1-oxa-8-azaspiro[4.5]decane-8-carboxamide], in that order: 7580 M⁻¹ s⁻¹ and 4120 M⁻¹ s⁻¹.
For `Cc1noc(NC(=O)N2CCC3(CC2)CC(c2cccc(-c4ccc(F)c(F)c4)c2)CO3)c1C` (racemic) [Example 53, (3RS)-3-(3′,4′-difluorobiphenyl-3-yl)-N-(3,4-dimethylisoxazol-5-yl)-1-oxa-8-azaspiro[4.5]decane-8-carboxamide], in that order: 1470 M⁻¹ s⁻¹ and 2020 M⁻¹ s⁻¹.
For `Cc1noc(NC(=O)N2CCC3(CC2)CC(c2cccc(-c4ccc(F)cc4)c2)CO3)c1C` (racemic) [Example 54, (3RS)-N-(3,4-dimethylisoxazol-5-yl)-3-(4′-fluorobiphenyl-3-yl)-1-oxa-8-azaspiro[4.5]decane-8-carboxamide], in that order: 1110 M⁻¹ s⁻¹ and 2040 M⁻¹ s⁻¹.
Regarding `Cc1noc(NC(=O)N2CCC3(CC2)CC(c2cccc(-c4ccc(Cl)cc4)c2)CO3)c1C` (racemic) [Example 55, (3RS)-3-(4′-chlorobiphenyl-3-yl)-N-(3,4-dimethylisoxazol-5-yl)-1-oxa-8-azaspiro[4.5]decane-8-carboxamide], the kinact/KI at rat FAAH is 1160 M⁻¹ s⁻¹; at human FAAH it was 2070 M⁻¹ s⁻¹.
For `Cc1noc(NC(=O)N2CCC3(CC2)CC(c2cccc(-c4ccc(OC(F)(F)F)cc4)c2)CO3)c1C` (racemic) [Example 56, (3RS)-N-(3,4-dimethylisoxazol-5-yl)-3-[4′-(trifluoromethoxy)biphenyl-3-yl]-1-oxa-8-azaspiro[4.5]decane-8-carboxamide] the same measures were 1140 M⁻¹ s⁻¹ and 1880 M⁻¹ s⁻¹.
In the case of `Cc1noc(NC(=O)N2CCC3(CC2)CC(c2cccc(C(F)(F)F)c2)CO3)c1C` (racemic) [Example 65, (3RS)—N-(3,4-dimethylisoxazol-5-yl)-3-[3-(trifluoromethyl)phenyl]-1-oxa-8-azaspiro[4.5]decane-8-carboxamide], the kinact/KI turned out to be 2630 M⁻¹ s⁻¹ on rat FAAH and 1100 M⁻¹ s⁻¹ at human FAAH.
For `Cc1noc(NC(=O)N2CCC3(CC2)CC(c2noc(-c4ccc(OC(F)(F)F)cc4)n2)CO3)c1C` (racemic) [Example 71, (3RS)—N-(3,4-dimethylisoxazol-5-yl)-3-{5-[4-(trifluoromethoxy)phenyl]-1,2,4-oxadiazol-3-yl}-1-oxa-8-azaspiro[4.5]decane-8-carboxamide] the same measures were 1020 M⁻¹ s⁻¹ and 2610 M⁻¹ s⁻¹.
For `Cc1noc(NC(=O)N2CCC3(CC2)CC(c2noc(-c4ccc(C(F)(F)F)cc4)n2)CO3)c1C` (racemic) [Example 74, (3RS)—N-(3,4-dimethylisoxazol-5-yl)-3-{5-[4-(trifluoromethyl)phenyl]-1,2,4-oxadiazol-3-yl}-1-oxa-8-azaspiro[4.5]decane-8-carboxamide], the kinact/KI at rat FAAH was found to be 1140 M⁻¹ s⁻¹; at human FAAH it was 2380 M⁻¹ s⁻¹.
For `Cn1nnnc1NC(=O)N1CCC2(CC1)CC(c1cccc(C(F)(F)F)c1)CO2` (racemic) [Example 92] the same measures were 3120 M⁻¹ s⁻¹ and 5240 M⁻¹ s⁻¹.
For `Cc1noc(NC(=O)N2CCC3(CC2)CC(F)(c2cc(F)cc(Cl)c2)CO3)c1C` (racemic) [Example 100, (3RS)-3-(3-chloro-5-fluorophenyl)-N-(3,4-dimethylisoxazol-5-yl)-3-fluoro-1-oxa-8-azaspiro[4.5]decane-8-carboxamide], in that order: 1120 M⁻¹ s⁻¹ and 871 M⁻¹ s⁻¹.
On to `O=C(Nc1noc2ccccc12)N1CCC2(CC1)CC(c1cccc(Oc3ccc(Cl)cn3)c1)CO2` (racemic) [Example 101, (3RS)—N-1,2-benzisoxazol-3-yl-3-{3-[(5-chloropyridin-2-yl)oxy]phenyl}-1-oxa-8-azaspiro[4.5]decane-8-carboxamide], for which the kinact/KI at rat FAAH turned out to be 8330 M⁻¹ s⁻¹; on human FAAH, 1780 M⁻¹ s⁻¹.
